Patent publication US11331298B2, “Powder solid dispersions comprising quercetin, process for their preparation and formulations thereof” (INDENA S.P.A., priority 2017, dated 2022)

Tests used:
[1] = Single dose randomized, crossover pharmacokinetic study in healthy volunteers; type: in vivo, human; settings: fasting, single oral dose, 500 mg film-coated tablets, mean
Description: A single dose randomized, crossover pharmacokinetic study in healthy volunteers under fasting conditions was performed using film-coated tablets containing 500 mg of (unformulated) quercetin dihydrate, 500 mg of quercetin (40%) powder solid dispersion (corresponding to 200 mg of quercetin dihydrate) and 250 mg of quercetin (40%) powder solid dispersion (corresponding to 100 mg of quercetin dihydrate).

[2] = Solubility studies in simulated gastro-intestinal fluids; type: physicochemical; settings: excess analyte, magnetic stirring 2 hours, HPLC
Excerpt: Quercetin dihydrate, quercetin powder solid dispersion obtained in Example 1 and a mechanical (physical) mixture of the component of the said solid dispersion were subjected to comparative solubility experiments, in the presence of high excess of analyte, using the following simulated gastro-intestinal fluids: • fasted state simulated gastric fluid; • fasted state simulated intestinal fluid; • fed state simulated intestinal fluid.
Equivalent amounts of quercetin were used during the experiments. Quercetin dihydrate, quercetin powder solid dispersion of Example 1 and the mechanical (physical) mixture were kept under magnetic stirring for 2 hours. The supernatant was filtered and the quercetin concentration was calculated by HPLC analysis.

O=c1c(O)c(-c2ccc(O)c(O)c2)oc2cc(O)cc(O)c12 [Quercetin dihydrate, 2-(3,4-Dihydroxyphenyl)-3,5,7-trihydroxy-4H-chromen-4-one]
Cmax [1]: 10.93 ng/mL | AUC(0-inf) ([1]; human, in vivo): 90.1 ng·h/mL | Quercetin concentration (solubility) ([2]; Fasted state simulated gastric fluid (pH 1.6)): <LOD | Quercetin concentration (solubility) ([2]; Fasted state simulated intestinal fluid (pH 6.5)): 7.5 µg/mL | Quercetin concentration (solubility) ([2]; Fed state simulated intestinal fluid (pH 5.0)): 19.1 µg/mL
